Laboratory results from ChEMBL document CHEMBL1201862, “PubChem BioAssay data set” (2004).
Active and inactive are the calls of the source.

Legend:
Aminopeptidase N = target: T1, Aminopeptidase N (Plasmodium falciparum FcB1/Columbia, UniProt O96935); assay: malaria alanyl aminopeptidase activity blockers – biochemical, fluorogenic H-Leu-NHMec substrate, 1536-well (AID 1445); parameters: species or system Plasmodium falciparum 3D7, 3D7
T1 sequence (O96935 whole entry): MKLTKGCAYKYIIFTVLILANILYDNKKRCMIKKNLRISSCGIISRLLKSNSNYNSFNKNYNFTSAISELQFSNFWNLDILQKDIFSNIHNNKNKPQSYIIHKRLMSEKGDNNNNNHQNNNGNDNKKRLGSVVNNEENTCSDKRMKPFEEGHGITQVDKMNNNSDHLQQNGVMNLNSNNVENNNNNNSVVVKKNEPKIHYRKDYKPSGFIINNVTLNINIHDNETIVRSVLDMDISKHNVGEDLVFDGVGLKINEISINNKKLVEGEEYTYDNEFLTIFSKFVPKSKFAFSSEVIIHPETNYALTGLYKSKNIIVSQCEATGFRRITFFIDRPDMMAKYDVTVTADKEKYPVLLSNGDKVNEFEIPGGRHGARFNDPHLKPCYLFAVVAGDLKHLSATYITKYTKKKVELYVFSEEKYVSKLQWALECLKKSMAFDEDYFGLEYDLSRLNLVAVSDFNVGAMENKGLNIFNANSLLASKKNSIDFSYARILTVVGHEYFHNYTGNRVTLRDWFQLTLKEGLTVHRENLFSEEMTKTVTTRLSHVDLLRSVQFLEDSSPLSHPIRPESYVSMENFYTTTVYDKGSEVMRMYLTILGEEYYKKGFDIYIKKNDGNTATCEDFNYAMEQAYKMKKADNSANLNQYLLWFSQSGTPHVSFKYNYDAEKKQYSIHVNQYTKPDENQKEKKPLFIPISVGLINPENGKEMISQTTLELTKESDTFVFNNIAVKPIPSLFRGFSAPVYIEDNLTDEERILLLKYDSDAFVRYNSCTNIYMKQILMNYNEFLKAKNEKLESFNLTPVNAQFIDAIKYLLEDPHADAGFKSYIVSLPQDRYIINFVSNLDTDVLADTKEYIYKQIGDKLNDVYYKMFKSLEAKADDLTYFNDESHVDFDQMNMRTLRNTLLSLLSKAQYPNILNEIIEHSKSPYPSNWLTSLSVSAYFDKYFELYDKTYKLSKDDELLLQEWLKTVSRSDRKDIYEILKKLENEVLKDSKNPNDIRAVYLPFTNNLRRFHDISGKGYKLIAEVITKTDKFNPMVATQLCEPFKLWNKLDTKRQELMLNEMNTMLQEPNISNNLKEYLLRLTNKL

[1] = alpha-synuclein stem-loop luciferase translation blockers – H4 neuroglioma cells, luminescence, confirmation (AID 1988); type: functional, cell-based
[2] = DRD fibroblast viability loss – cell-based, non-viral oncogenic, luminescence, dose response (AID 1934); type: functional; conditions: Homo sapiens
[3] = luciferase reporter signal suppression in cells – H4 neuroglioma cells, luminescence, dose response (AID 1990); type: functional, cell-based
[4] = NIH-3T3 fibroblast cytotoxicity, dose response, cytotoxicity control, cell-based, fluorescence, Alamar Blue, secondary assay (AID 2327); type: functional;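 also: NIH-3T3 mouse fibroblasts cultured with fluconazole at 8 µg/mL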
[5] = Luminescence Cell-Based Dose Response HTS to Identify Inhibitors of 5'UTR Stem-Loop Driven Prion Protein mRNA Translation in H4 Neuroglioblastoma Cells. [Related pubchem assays: 1827 (Project Summary), 1813 (Primary HTS)]; type: functional
BJ [6] = assay: BJ-TERT fibroblast viability loss – cell-based, RAS-independent, luminescence, dose response (AID 1933); type: functional; conditions: Homo sapiens
INS1 = assay: INS-1E survival protection against cytokine death – cell-based, luminescence, retest, dose response (AID 449756); type: functional; conditions: Rattus norvegicus;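 also: cell death triggered by IL-1 beta plus TNF-alpha plus IFN-gamma mixture; protective hits raise ATP signal compared with cytokine alone wells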
BJ [7] = assay: cells; type: functional, cell-based; conditions: Homo sapiens
[8] = fluconazole-exposed Candida albicans growth modulators – fluorescence, retest, confirmation (AID 2467); type: functional, cell-based
BJ [9] = assay: BJ-TERT-LT-ST fibroblast viability loss – cell-based, RAS-independent, luminescence, dose response (AID 1935); type: functional; conditions: Homo sapiens;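 also: BJ fibroblasts immortalized with TERT plus LT and ST oncogenes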
[10] = microbe, parasite or virus in culture; type: functional; conditions: Mycobacterium tuberculosis
[11] = THP-1 cell cytotoxicity, dose response, cytotoxicity control for non-replicating M. tuberculosis project (AID 489025); type: functional
cells = type: functional
[12] = target: Glyceraldehyde-3-phosphate dehydrogenase (Homo sapiens, UniProt P04406)
Estrogen receptor beta = Estrogen receptor beta (Homo sapiens, UniProt Q92731);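 also: recombinant ER-beta bound to coactivator SRC1 peptide in presence of estradiol agonist; inhibitors block coactivator peptide binding and lower the FRET signal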
[13] = target: T2, Replicative DNA helicase DnaB (Mycobacterium tuberculosis, UniProt P9WMR3); assay: DnaB intein splicing inhibitors, dose response, biochemical, cell-free fluorescence (AID 449749); type: functional
T2 sequence (P9WMR3 whole entry): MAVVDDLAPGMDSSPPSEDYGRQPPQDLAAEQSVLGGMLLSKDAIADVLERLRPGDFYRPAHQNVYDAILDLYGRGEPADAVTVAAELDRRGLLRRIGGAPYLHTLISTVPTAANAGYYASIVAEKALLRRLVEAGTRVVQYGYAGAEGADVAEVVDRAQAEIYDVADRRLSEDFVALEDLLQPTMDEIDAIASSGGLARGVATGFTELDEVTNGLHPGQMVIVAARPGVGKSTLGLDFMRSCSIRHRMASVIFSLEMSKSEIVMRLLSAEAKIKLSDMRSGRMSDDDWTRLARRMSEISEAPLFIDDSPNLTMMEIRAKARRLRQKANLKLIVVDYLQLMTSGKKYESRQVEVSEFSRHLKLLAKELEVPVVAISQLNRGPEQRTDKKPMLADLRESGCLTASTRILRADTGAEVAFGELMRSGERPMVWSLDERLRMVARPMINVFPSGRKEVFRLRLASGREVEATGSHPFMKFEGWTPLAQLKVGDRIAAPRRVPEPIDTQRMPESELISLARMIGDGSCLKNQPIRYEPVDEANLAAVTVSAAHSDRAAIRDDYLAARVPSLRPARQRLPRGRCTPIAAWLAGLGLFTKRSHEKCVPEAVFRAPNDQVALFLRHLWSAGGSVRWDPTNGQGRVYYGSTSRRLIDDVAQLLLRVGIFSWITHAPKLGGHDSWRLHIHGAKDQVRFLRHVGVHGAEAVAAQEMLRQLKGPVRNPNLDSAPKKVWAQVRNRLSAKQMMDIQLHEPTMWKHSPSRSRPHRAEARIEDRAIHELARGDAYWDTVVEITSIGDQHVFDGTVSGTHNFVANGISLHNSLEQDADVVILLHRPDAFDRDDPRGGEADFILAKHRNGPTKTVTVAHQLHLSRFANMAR

Protein RecA = target: T3, Protein RecA (Mycobacterium tuberculosis, UniProt P9WHJ3); assay: Fluorescence Cell-Free Homogeneous Dose Retest to Identify Inhibitors of RecA-Intein Splicing Activity. [Related pubchem assays (depositor defined):AID2097, AID2223, AID489010, AID492950]; type: functional
T3 sequence (P9WHJ3 whole entry): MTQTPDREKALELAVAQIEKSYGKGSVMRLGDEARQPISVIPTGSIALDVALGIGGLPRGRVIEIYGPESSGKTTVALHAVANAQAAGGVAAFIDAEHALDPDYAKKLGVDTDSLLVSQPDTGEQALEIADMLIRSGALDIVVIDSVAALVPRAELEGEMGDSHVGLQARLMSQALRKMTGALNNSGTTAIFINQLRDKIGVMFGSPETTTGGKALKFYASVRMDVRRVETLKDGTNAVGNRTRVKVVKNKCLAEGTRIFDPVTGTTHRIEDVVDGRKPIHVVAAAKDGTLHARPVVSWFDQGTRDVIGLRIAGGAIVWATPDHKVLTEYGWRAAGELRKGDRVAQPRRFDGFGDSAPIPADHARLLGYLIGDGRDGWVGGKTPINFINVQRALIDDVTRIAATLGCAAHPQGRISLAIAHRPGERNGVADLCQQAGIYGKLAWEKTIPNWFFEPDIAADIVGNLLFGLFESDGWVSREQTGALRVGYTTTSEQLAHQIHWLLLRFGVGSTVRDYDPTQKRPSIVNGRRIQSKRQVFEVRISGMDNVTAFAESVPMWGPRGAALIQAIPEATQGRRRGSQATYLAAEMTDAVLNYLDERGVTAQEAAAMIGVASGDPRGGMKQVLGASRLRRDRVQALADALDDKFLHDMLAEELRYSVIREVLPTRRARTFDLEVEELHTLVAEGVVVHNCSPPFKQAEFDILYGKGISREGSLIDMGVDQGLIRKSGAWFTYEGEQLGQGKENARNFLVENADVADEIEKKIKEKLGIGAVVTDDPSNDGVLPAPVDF

[14] = HIV-1 AD8 envelope cell-cell fusion blockers – cherry-pick, dose response (AID 652062); type: functional, cell-based;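 also: luciferase signal from cell-cell fusion driven by HIV-1 clade B AD8 Env; potency is for inhibitors of fusion seen as a drop in luminescence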
Paired box protein Pax-8 = Paired box protein Pax-8 (Homo sapiens, UniProt Q06710); assay: PAX8 transcriptional activity inhibition in RMG-I – RMG-I cells, luciferase, cherry-pick, dose response (AID 687027); type: functional, cell-based;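 also: luciferase reporter driven by Pax8 target thyroperoxidase promoter measured by SteadyGlo luminescence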
[15] = blockers of HIV-1 ZM109 envelope-driven cell-cell fusion – HeLa effector, CEM target cells, luciferase, cherry-pick, dose response (AID 652058); type: functional, cell-based;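 also: luciferase signal from HIV-1 Env mediated cell-cell fusion of effector and target cells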
[16] = blockers of HIV-1 envelope-mediated cell-cell fusion – cherry-pick, dose response (AID 652057); type: functional, cell-based
[17] = OVCAR8 cell viability loss – plate reader, dry powder samples, PAX8 project, dose response (AID 743197); type: functional, cell-based; conditions: OVCAR-8
[18] = target: DNA dC->dU-editing enzyme APOBEC-3G (Homo sapiens, UniProt Q9HC16); assay: Dose Response confirmation of small molecule APOBEC3G DNA Deaminase Inhibitors via a fluorescence-based single-stranded DNA deaminase assay. [Related pubchem assays (depositor defined):AID493012, AID493028]; type: functional
Sequence of DNA dC->dU-editing enzyme APOBEC-3G (Q9HC16 whole entry): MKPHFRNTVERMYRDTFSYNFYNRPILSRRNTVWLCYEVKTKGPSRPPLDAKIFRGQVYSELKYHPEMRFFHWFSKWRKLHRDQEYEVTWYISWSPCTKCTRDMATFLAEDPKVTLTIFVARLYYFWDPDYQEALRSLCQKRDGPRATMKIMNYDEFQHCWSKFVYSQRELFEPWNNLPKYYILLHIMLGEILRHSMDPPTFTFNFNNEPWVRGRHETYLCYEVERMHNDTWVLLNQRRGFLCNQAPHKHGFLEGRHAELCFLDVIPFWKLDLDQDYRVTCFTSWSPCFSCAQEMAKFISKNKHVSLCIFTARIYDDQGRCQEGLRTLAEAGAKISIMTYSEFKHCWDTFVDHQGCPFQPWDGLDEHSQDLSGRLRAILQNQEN

Sequence of Glyceraldehyde-3-phosphate dehydrogenase (P04406 whole entry): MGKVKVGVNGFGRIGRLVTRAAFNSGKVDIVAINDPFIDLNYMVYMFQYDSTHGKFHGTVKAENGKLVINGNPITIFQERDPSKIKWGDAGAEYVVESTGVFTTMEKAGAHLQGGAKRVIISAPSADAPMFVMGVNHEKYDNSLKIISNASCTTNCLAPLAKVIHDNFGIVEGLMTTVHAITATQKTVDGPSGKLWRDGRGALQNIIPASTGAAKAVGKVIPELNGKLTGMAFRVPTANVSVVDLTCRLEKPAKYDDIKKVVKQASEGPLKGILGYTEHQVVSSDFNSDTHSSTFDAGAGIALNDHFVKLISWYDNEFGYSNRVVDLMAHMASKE
Sequence of Estrogen receptor beta (Q92731 whole entry): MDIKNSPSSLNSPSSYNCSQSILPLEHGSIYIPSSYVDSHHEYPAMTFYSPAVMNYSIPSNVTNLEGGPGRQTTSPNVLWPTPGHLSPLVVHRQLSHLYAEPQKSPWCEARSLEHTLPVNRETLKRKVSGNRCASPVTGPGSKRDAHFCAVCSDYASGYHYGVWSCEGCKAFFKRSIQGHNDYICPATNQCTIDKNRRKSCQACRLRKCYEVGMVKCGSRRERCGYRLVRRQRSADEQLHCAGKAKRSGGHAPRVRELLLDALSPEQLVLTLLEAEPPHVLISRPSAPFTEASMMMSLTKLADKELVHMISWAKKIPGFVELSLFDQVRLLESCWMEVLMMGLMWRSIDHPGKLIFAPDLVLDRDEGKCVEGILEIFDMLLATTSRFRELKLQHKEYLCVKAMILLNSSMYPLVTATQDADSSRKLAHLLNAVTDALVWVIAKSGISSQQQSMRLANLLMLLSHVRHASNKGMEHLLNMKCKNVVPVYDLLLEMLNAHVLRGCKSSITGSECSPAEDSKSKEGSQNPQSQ
Sequence of Paired box protein Pax-8 (Q06710 whole entry, the tested form may be a part): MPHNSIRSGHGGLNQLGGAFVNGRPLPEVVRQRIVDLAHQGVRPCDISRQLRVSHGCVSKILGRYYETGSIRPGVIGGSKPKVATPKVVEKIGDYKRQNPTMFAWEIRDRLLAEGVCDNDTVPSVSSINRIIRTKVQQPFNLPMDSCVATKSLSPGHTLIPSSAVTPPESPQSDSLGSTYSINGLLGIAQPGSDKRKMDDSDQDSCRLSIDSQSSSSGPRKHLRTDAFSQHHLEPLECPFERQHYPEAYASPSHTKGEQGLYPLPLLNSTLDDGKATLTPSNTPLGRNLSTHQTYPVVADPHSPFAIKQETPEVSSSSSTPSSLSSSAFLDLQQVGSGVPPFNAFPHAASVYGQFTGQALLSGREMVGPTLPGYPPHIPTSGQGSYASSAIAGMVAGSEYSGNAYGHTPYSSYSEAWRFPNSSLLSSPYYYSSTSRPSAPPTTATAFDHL

Structure (SMILES): O=C(NCc1cccs1)C1CCN(S(=O)(=O)c2ccccc2F)CC1
- IC50 (Aminopeptidase N): 51 µM (active)

Structure (SMILES): Cc1csc(NC(=O)CSCC(=O)O)c1-c1nc2ccccc2s1
- IC50 (Aminopeptidase N): 7.09 µM (active)

Structure (SMILES): COc1ccc(-[n+]2c(-c3ccccc3)cc(-c3ccccc3)cc2-c2ccccc2)cc1.[O-][Cl+3]([O-])([O-])[O-]
- EC50 [1]: 17.9 µM (active)
- EC50 [2]: 14.1 µM (active)
- EC50 [3]: 11 µM (active)
- EC50 [4]: 40.7 µM (active)
- EC50 [5]: > 120 µM (not active)
- EC50 (BJ [6]): 11.7 µM (inconclusive)
- AC50 (INS1): 1.33 µM (active)
- EC50 (BJ [7]): 14.1 µM (active)
- EC50 [8]: 0.046 µM (active)
- EC50 (BJ [9]): > 150 µM (inconclusive)

Structure (SMILES): C=C1CCC[C@]2(C)C[C@H]3OC(=O)C(CNC(C)CCCC(C)C)[C@H]3CC12 (some centres undefined)
- CC50 [10]: 27 µM (active)
- CC50 [11]: 22.1 µM (active)
- IC50 (cells): 30.6 µM (active)

Structure (SMILES): O=C(NCCCO)c1cc(-c2ccc(Cl)cc2Cl)n[nH]1
- IC50 [12]: > 10 µM (inconclusive)

Structure (SMILES): O=C(O)c1cc(NS(=O)(=O)c2cccc3cccnc23)ccc1O
- IC50 [12]: > 100 µM (not active)

Structure (SMILES): Cc1noc(NS(=O)(=O)c2ccc(NC(=O)CSc3nnc(-c4ccccc4)n3C3CCCCC3)cc2)c1C
- IC50 (Aminopeptidase N): 75.9 µM (active)

Structure (SMILES): N#C/C(=C\c1c(N2CCC(C(N)=O)CC2)nc2ccccn2c1=O)S(=O)(=O)c1ccccc1
- IC50 (Estrogen receptor beta): > 50 µM (not active)

Structure (SMILES): O=C(NC1CCCC1)C(c1ccc(F)cc1)N(Cc1ccccc1Cl)C(=O)CCl (centres undefined)
- EC50 [2]: 8.7 µM (active)
- AC50 [13]: > 380 µM (inactive)
- EC50 (Protein RecA): 0.215 µM (active)
- EC50 (BJ [6]): 5.5 µM (active)
- EC50 (BJ [7]): 14.8 µM (active)
- EC50 (BJ [9]): > 150 µM (inconclusive)

Structure (SMILES): CC(=O)NC(=S)NNC(=O)COc1ccc(Br)cc1
- IC50 (Aminopeptidase N): 2.57 µM (active)

Structure (SMILES): COc1ccc(Cn2nnnc2C(c2ccccc2OC)N2CCC(C(N)=O)CC2)cc1 (centres undefined)
- IC50 (Estrogen receptor beta): > 50 µM (not active)

Structure (SMILES): O=C(C[C@H]1C[C@@H]2c3cc(NS(=O)(=O)c4ccc(F)cc4)ccc3O[C@@H]2[C@@H](CO)O1)NCc1ccc(-c2ccccc2)cc1
- AC50 [14]: 19.4 µM (active)
- AC50 (Paired box protein Pax-8): 7.31 µM (active)
- AC50 [15]: 9.89 µM (active)
- AC50 [16]: 23.1 µM (active)
- AC50 [17]: 4 µM (active)

Structure (SMILES): COc1c(/C=N/Nc2ccc([N+](=O)[O-])cc2[N+](=O)[O-])c(C)nn1-c1ccccc1
- EC50 [2]: 15.8 µM (active)
- EC50 (BJ [6]): 7.99 µM (active)
- EC50 (BJ [7]): > 150 µM (not active)
- EC50 (BJ [9]): > 150 µM (inconclusive)

Structure (SMILES): Oc1nc(-c2ccncc2)nc2ccccc12
- IC50 [18]: 44.8 µM (active)

Structure (SMILES): CC(C)(C)NC(=O)C(=O)NNC(=O)COc1ccc(Br)cc1
- IC50 (Aminopeptidase N): 619 µM (active)
- IC50 (cells): 17.9 µM (active)
